Assay [1] addresses Norepinephrine transporter (Rattus norvegicus, UniProt Q9WTR4). The experiment in a line: Inhibition of [3H]NE uptake at Norepinephrine transporter in rat parietal/occipital cortex was determined.
Assay [2] deals with T1, Sodium-dependent dopamine transporter (Rattus norvegicus, UniProt P23977). The experiment in a line: Inhibition of [3H]DA uptake at Dopamine transporter in rat cortex.
In assay [3] the target is Sodium-dependent serotonin transporter (Rattus norvegicus, UniProt P31652). The experiment in a line: Inhibition of [3H]5-HT uptake at Serotonin transporter in rat mid brain.
Assay [4] can be described thus: In vitro Ki against [3H]mazindol binding.
The target in assay [5] is T1, Sodium-dependent dopamine transporter. The experiment in a line: Functional cocaine antagonism was evaluated by inhibition of [3H]dopamine reuptake at a concentration of 300 nM with cocaine.
Assay [6] has the same target. Put plainly: Functional cocaine antagonism was evaluated by inhibition of [3H]dopamine reuptake.
Assay [7] shares this target. Put plainly: Functional cocaine antagonism was evaluated by inhibition of [3H]dopamine reuptake at a concentration of 100 nM with cocaine.
Assay [8] shares this target. The experiment in a line: Functional cocaine antagonism was evaluated by inhibition of [3H]dopamine reuptake at a concentration of 30 nM with cocaine.

T1 sequence (P23977 whole entry): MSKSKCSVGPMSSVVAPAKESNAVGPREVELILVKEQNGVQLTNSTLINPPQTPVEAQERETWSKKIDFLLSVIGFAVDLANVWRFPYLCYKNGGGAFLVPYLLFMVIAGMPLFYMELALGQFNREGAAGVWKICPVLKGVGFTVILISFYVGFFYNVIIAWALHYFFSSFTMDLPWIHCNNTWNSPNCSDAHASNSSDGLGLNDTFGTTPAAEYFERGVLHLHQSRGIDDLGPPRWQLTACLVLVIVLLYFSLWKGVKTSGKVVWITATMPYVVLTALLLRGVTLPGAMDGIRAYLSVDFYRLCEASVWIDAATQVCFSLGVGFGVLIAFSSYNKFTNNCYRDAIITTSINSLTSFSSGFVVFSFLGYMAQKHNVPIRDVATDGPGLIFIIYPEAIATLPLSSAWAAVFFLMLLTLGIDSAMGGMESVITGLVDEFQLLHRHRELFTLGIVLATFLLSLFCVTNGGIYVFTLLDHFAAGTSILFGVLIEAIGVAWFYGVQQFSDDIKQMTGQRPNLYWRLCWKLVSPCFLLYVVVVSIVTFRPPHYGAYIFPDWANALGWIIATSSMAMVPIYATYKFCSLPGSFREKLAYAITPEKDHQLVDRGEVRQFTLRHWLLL
Sequence of Sodium-dependent serotonin transporter (P31652 whole entry): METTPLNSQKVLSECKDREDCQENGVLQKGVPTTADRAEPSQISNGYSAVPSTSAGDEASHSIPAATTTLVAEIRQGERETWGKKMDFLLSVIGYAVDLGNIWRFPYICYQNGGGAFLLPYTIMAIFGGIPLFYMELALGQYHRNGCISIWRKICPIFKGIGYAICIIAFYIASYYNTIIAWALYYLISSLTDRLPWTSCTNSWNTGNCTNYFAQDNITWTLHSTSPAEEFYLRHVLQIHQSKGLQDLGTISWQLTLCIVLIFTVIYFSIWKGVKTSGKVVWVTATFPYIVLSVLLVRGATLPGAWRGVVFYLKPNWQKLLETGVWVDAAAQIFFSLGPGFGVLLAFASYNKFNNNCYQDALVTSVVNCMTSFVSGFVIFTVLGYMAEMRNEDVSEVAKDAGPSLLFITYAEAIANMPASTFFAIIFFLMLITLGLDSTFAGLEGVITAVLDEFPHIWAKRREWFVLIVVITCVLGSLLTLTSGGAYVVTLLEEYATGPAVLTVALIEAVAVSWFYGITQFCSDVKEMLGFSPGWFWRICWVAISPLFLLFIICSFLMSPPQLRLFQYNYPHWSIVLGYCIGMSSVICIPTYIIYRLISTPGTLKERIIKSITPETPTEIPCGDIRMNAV
Sequence of Norepinephrine transporter (Q9WTR4 whole entry): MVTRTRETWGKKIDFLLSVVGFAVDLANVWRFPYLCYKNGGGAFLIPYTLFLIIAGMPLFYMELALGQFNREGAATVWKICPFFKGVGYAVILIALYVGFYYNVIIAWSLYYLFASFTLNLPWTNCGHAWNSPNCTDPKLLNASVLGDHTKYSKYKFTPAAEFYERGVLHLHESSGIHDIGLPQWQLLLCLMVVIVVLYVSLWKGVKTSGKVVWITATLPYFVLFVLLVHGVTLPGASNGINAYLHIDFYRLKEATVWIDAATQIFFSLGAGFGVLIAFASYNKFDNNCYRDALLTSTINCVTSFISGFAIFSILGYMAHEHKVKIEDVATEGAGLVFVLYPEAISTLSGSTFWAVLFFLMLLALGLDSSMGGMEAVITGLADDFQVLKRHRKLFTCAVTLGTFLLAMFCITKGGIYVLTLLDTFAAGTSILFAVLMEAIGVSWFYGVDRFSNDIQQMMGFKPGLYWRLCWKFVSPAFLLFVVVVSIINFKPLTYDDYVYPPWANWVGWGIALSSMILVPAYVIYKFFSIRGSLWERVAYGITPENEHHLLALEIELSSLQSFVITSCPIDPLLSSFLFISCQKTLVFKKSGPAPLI

As to `CN1C[C@@H](C(=O)c2ccc(F)cc2)[C@H](c2ccc(F)cc2)C1`, the Ki (commonly the dissociation constant of the complex between target and ligand, obtained from inhibition or displacement) amounted to 800 nM in assay [1], 3960 nM in assay [2] and 380 nM in assay [3].
In assay [2], `CN1C[C@@H](C(=O)c2ccc(Cl)cc2)[C@H](c2ccccc2F)C1` displayed an inhibitory constant (Ki) of 1280 nM. That is a single-digit micromolar value.
For the molecule `COc1ccccc1C(=O)[C@@H]1CN(c2ccccc2)C[C@H]1c1ccc(Cl)cc1`, the inhibitory constant (Ki) in assay [2] is more than 10000 nM.
For `COc1ccc(C(=O)[C@@H]2CN(C)C[C@H]2c2ccc(Cl)cc2)cc1`, the inhibitory constant (Ki) in assay [2] came out at 1160 nM. That is a single-digit micromolar value.
On the same count and under the same terms, the value for `CN1C[C@@H](C(=O)c2ccc(Cl)cc2)[C@H](c2ccc(Cl)cc2Cl)C1` was 1260 nM; that for `Cc1ccc([C@@H]2CN(c3ccccc3)C[C@H]2C(=O)c2ccc(F)cc2)cc1` was more than 10000 nM.
`Cc1ccc([C@@H]2CN(C)C[C@H]2C(=O)c2ccccc2F)cc1` returned an inhibitory constant (Ki) in assay [2] of 1930 nM.
For the molecule `CN1C[C@@H](C(=O)c2ccc(Cl)cc2)[C@H](c2ccccc2)C1`, the Ki in assay [1] stood at 430 nM; in assay [4], 1250 nM; in assay [2], 1220 nM; in assay [3], 520 nM.
The matching figures for `CN1C[C@@H](C(=O)c2ccccc2Cl)[C@H](c2ccc(Cl)cc2)C1`: 69 nM, 340 nM, 610 nM and 540 nM.
As to `CN1C[C@@H](C(=O)c2ccccn2)[C@H](c2ccccc2)C1`, the values for the inhibitory constant (Ki) in assay [4], in assay [2] and in assay [3] were 510 nM, 630 nM and 830 nM, respectively. Also, the results for the IC50 in assay [5], in assay [6] and in assay [7] were 645 nM, 663 nM and 494 nM, respectively.
Consider `CN1C[C@@H](C(=O)c2cccs2)[C@H](c2ccc(Cl)cc2)C1`, for which the values for the IC50 in assay [8], in assay [6] and in assay [7] were 46 nM, 308 nM and 641 nM, respectively. Besides, the Ki in assay [1] stood at 31 nM; in assay [4], 84 nM; in assay [2], 200 nM; in assay [3] it was 230 nM.
For `O=C(c1ccccn1)[C@@H]1CN(c2ccccc2)C[C@H]1c1ccccc1`, the inhibition constant Ki in assay [1], in assay [4], in assay [2] and in assay [3] was more than 10000 nM in each case.
In the case of `CN1C[C@@H](C(=O)c2ccccc2)[C@H](c2ccccc2)C1`, the Ki in assay [1] came to 150 nM; in assay [4], 1180 nM; in assay [2], 1410 nM; in assay [3] it was 750 nM.
As to `O=C(c1ccccc1)[C@@H]1CN(c2ccccc2)C[C@H]1c1ccc(Cl)cc1`, the Ki in assay [2] is more than 10000 nM.
For `O=C(c1cccs1)[C@@H]1CN(c2ccccc2)C[C@H]1c1ccccc1`, the inhibitory constant (Ki) in assay [1], in assay [4], in assay [2] and in assay [3] was more than 10000 nM each time.
In assay [2], `CN1C[C@@H](C(=O)c2cccc(C(F)(F)F)c2)[C@H](c2ccc(Cl)cc2)C1` came in with an inhibition constant (Ki) of 3170 nM.
For `COC(=O)[C@@H]1C2CC[C@@H](C[C@@H]1OC(=O)c1ccccc1)N2C` (single isomer, unassigned) [COCAINE], in assay [4], the Ki stood at 230 nM.

The values are drawn from ChEMBL document CHEMBL1134711, “Pharmacophore-based discovery of 3,4-disubstituted pyrrolidines as a novel class of monoamine transporter inhibitors” (Bioorg Med Chem Lett, 2001).
